The target of data set [1] is T1, Lst sialyltransferase from N. gonorrhoeae F62 (Neisseria gonorrhoeae, UniProt P72074).
T1 construct: made in house; host or cells: Escherichia coli
The data set can be described thus: Lst sialyltransferase acceptor specificity with CMP-Neu5Ac and CMP-Leg5Ac7Ac donors (TLC). Type of data set: biochemical. The note with it: for removal of the nonulosonate from modified LacNAc acceptors by Lst over time: 2 h versus 20 h. On the procedure:
(§1) FIG. 11. N. gonorrhoeae Lst sialyltransferase efficiently legylates a LacNAc acceptor. The acceptor specificity of N. gonorrhoeae Lst sialyltransferase was assessed using CMP-Neu5Ac and CMP-Leg5Ac7Ac donors. The various acceptors tested were LacNAc or Galβ-1,4-GlcNAc-β-FCHASE, Lacto-N-biose or Galβ-1,3-GlcNAc-β-FCHASE, TAg or Galβ-1,3-GalNAc-α-FCHASE, and Pk or Galα-1,4-Galβ-1,4-Glc-β-FCHASE. Lst enzyme preparations (2.5 μg per assay) were incubated with 2.5 pmoles of each acceptor with either 3 mM CMP-Neu5Ac or 3 mM CMP-Leg5Ac7Ac for either 2 or 20 h as indicated. Reactions were then examined by TLC. Arrows indicate the general vicinity of FCHASE acceptors (top spots), whereas arrowheads indicate the general vicinity of modified FCHASE acceptors (bottom spots—enzyme product).
as §1, with “The” for “FIG. 11. N. gonorrhoeae Lst sialyltransferase efficiently legylates a LacNAc acceptor. The”, “product) (FIG. 11).” for “product).”
Lst sialyltransferase from N. gonorrhoeae F62 was recombinantly produced in Escherichia coli. Total membranes were isolated by ultracentrifugation at 100,000×g, resuspended in 0.2% Triton X-100, 50 mM Tris pH 7.5, 100 mM NaCl and incubated for 2 h at 4° C. […] N. gonorrhoeae Lst enzymatic assays were performed using 2.5 pmoles of 4 different FCHASE acceptors; LacNAc or Galβ-1,4-GlcNAc-β-FCHASE, Lacto-N-biose or Galβ-1,3-GlcNAc-β-FCHASE, TAg or Galβ-1,3-GalNAc-α-FCHASE, Pk or Galα-1,4-Galβ-1,4-Glc-β-FCHASE. CMP-Neu5Ac donor assays contained 50 mM Tris pH 7.5, whereas CMP-Leg5Ac7Ac donor assays contained 50 mM MES pH 6. All reactions contained 10 mM MnCl2, 3 mM CMP-sugar donor and 2.5 μg Lst enzyme. Reactions were incubated at 30° C. for either 2 h or 20 h as indicated. Upon completion of the reactions, stop solution was added (final concentration of 0.5% SDS, 5 mM EDTA, 25% acetonitrile) and an aliquot was run on TLC using EtOAc:MeOH:H2O:HOAc 4:2:1:0.1 as the mobile phase.

Data set [2] is classed as physicochemical. The text has this: Importantly, Neu5Ac9Az/Neu5Ac9Ac and Leg5Ac7Ac differ from Neu5Ac at carbon 9 and carbons 7 and 9, respectively. As well, Neu5Gc8Me differs from Neu5Gc at carbon 8. As such, carbons 7, 8 and 9 within the exocyclic moiety of nonulosonate sugars appear to play a critical role in the avoidance of serum mediated killing by N. gonorrhoeae, as evidenced by the enhanced serum-mediated killing with CMP-Neu5Ac9Az, CMP-Neu5Ac9Ac, CMP-Leg5Ac7Ac and CMP-Neu5Gc8Me, that was not observed with either CMP-Neu5Ac or CMP-Neu5Gc only feeding controls.

In data set [3] the test system is Ng F62 (wildtype [WT]). The data set can be described thus: BALB/c vaginal colonization model, Ng F62. The note with it: 10 μg intravaginally daily. Type of data set: in vivo, N. gonorrhoeae. As for the experimental part:
FIG. 13. […] A and B. Efficacy of CMP-Leg5Ac7Ac against Ng F62. 17β-estradiol treated BALB/c mice were infected with i) Ng F62 (wildtype [WT]) and treated (CMP-Leg5Ac7Ac, 10 μg intravaginally, daily), ii) Ng F62 WT→saline (No treatment) or iii) Ng F62 Δlst (cannot sialylate LOS), untreated. Ng load in the vagina was enumerated daily. A. Time to clearance. B. Area under the curve (AUC; each point represents the AUC of CFU vs. time for each mouse). Horizontal bar, geometric mean. C and D. Efficacy of CMP-Leg5Ac7Ac vs ceftriaxone-resistant isolate H041. Time to clearance (C) and AUC analysis (D) are described above.
The efficacy of CMP-Leg5Ac7Ac against Ng was tested in the BALB/c vaginal colonization model (FIG. 13) (51). Three groups of 17β-estradiol treated BALB/c mice (10 mice/group) were infected as follows: i) WT F62→CMP-Leg5Ac7Ac (10 μg intravaginally daily), ii) WT F62→saline control (‘untreated’) and iii) F62 List (cannot sialylate LOS)→untreated.

Consider three compounds from US10865222B2, “Neisseria gonorrhoeae therapeutic based on CMP-nonulosonate sugars” (priority 2014, dated 2020).

T1 sequence (P72074 whole entry): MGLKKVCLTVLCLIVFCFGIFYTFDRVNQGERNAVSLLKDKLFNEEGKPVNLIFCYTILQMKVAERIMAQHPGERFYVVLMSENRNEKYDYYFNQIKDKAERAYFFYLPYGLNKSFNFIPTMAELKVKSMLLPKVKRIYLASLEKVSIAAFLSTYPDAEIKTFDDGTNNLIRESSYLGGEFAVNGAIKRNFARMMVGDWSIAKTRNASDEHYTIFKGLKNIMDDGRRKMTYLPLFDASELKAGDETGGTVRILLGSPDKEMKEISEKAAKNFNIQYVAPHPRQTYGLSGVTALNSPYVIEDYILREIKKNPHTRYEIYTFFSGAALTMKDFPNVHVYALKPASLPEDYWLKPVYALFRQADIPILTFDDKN

On to `CC(=O)NC1C(O)CC(OP(=O)(O)OCC2OC(n3ccc(N)nc3=O)C(O)C2O)(C(=O)O)OC1C(O)C(O)CO` [CMP-Neu5Ac, CMP-5-acetamido-3,5-dideoxy-D-glycero-D-galacto-nonulosonic acid, reference compound], for which the “utilization of Lacto-N-biose, TAg and Pk acceptors” value in data set [1] (3 mM CMP-sugar donor, 2 or 20 h) is “all but TAg could be efficiently utilized”. Further, in data set [1], the “removal of the nonulosonate from modified LacNAc acceptors by Lst over time” value was “can remove Neu5Ac from modified LacNAc acceptors over time”.

Turning to `CC(=O)N[C@H]1[C@H]([C@H](O)[C@H](O)COC(C)=O)OC(OP(=O)(O)OC[C@H]2O[C@@H](n3ccc(N)nc3=O)[C@H](O)[C@@H]2O)(C(=O)O)C[C@@H]1O` (stereo partly drawn) [CMP-Neu5Ac9Ac, CMP-5-acetamido-9-O-acetyl-3,5-dideoxy-D-glycero-D-galacto-nonulosonic acid], in data set [2], the “stability of the preparation” value is reported as “spontaneous breakdown of the 9OAc group”.

For “5,7-diacetamido-3,5,7,9-tetradeoxy-D-glycero-D-galacto-nonulosonic acid [CMP-Leg5Ac7Ac]”, the “Ng infection (time to clearance, AUC of CFU vs. time)” value in data set [3] (17β-estradiol treated BALB/c mice, vs saline) is recorded as “significantly attenuated Ng infection”. For the same compound, the “sensitivity to human complement of bacteria recovered directly from treated mice” value in data set [3] (BALB/c mice, not shown) was “became sensitive to human complement”. Besides, the “product conversion of LacNAc acceptor” value in data set [1] (3 mM CMP-sugar donor, 2.5 μg Lst) is about 100%. Moreover, the “removal of the nonulosonate from modified LacNAc acceptors by Lst over time” value in data set [1] is on record as “this was not observed”.
